The source of these data is US9624520B2, “Biosynthetically generated pyrroline-carboxy-lysine and site specific protein modifications via chemical derivatization of pyrroline-carboxy-lysine and pyrrolysine residues” (Novartis AG, priority 2008, dated 2017).

Entries after “also recorded” stand apart in the source; their conditions may differ. Where a name gives a salt, the structure may show the parent alone.

The subject of one series is HK100 cells. Description: Incorporation of other analogues and precursors into FAS-TE L2222TAG (Ni-NTA, SDS-PAGE, Bradford). The note with it: for full-length protein production / PCL biosynthesis from precursor: Escherichia coli cells with pylB/pylC/pylD/pylS/pylT; for Bradford: 25 ml culture. It is filed as cell-based, Escherichia coli.
In a further series the test system is PylD. The experiment in a line: NMR evaluation of Lys-Nε-D-Orn as substrate for PylD. Type of series: biochemical, Methanosarcina mazei.
Another series addresses T1, pylS tRNA synthetase (Methanosarcina mazei, UniProt Q8PWY1).
T1 construct: expressed in transfected cells; host or cells: HEK293F
The experiment in a line: Incorporation test with synthetic pyrrolysine analogues (full-length hRBP4 mutant #6). It is filed as cell-based. The following applies: 2 or 5 mM analogue, HEK293F cells with pylT/pylS only, Western blot and SDS-PAGE. Here is the method: In parallel to the above experiment, the production of full-length hRBP4 Phe122PCL protein (mutant #6) was also measured in the presence of a series of synthetic pyrrolysine analogues designed with an acetyl moiety for chemical derivatization after protein incorporation (FIG. 14B). The synthetic analogues were prepared as described in Example 19. pRSRBP was co-transfected into HEK293F cells with pCMVpyS which supplies one gene copy of pylT tRNA and of pylS tRNA synthetase. Depending on solubility, the synthetic analogues were added to the media either at 2 or 5 mM final concentration.

A short description of series [1]: Compound stability (degradation measured by nuclear magnetic resonance spectroscopy). Type of series: physicochemical.
The test system of the next series is HEK293F cells. The experiment in a line: Incorporation test with putative PCL and pyrrolysine precursors (full-length hRBP4 Phe122PCL). The note with it: 5 mM precursor; HEK293F cells with pylT, pylS, pylB, pylC, pylD; Western blot and SDS-PAGE of Ni-NTA purified samples. Type of series: cell-based, human. The method, then: The production of full-length hRBP4 Phe122PCL protein (mutant #6) was measured in the presence of the putative PCL precursor D-ornithine, D-proline, D-arginine, D-glutamic acid, 4-hydroxyl-D-proline and 2-pyrrolidone-5-carboxylic acid (FIGS. 13A and B, FIG. 14A). pRSRBP was co-transfected into HEK293F cells with pCMVpyS, pCMVpyB, pCMVpyC and pCMVpyD and cells were grown in the presence of 5 mM of the putative precursor (FIG. 14A) as described in Example 2.
(In western blotting, separated proteins are transferred to a membrane and probed.)

For series [2] the following is noted: pH 5.
Setting [3] is: purified FAS-TE from HK100 cells with pylB/pylC/pylD/pylS/pylT (lanes 5-11).

T1 sequence (Q8PWY1 whole entry): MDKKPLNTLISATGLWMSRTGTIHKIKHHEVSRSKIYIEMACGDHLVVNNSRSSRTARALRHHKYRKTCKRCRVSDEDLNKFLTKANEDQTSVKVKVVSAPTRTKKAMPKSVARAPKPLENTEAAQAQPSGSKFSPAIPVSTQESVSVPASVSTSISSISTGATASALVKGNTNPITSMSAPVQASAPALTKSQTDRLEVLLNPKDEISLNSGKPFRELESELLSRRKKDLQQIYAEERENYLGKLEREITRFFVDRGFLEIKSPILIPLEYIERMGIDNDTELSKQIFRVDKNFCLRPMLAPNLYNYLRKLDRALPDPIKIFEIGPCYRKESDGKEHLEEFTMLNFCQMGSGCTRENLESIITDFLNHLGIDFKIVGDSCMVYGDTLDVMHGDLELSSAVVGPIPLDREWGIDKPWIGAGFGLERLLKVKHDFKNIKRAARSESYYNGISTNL

As for `NCCC[C@@H](N)C(=O)NCCCC[C@H](N)C(=O)O` [Lys-Nε-D-ornithine, (2S)-2-amino-6-((R)-2,5-diaminopentanamido)hexanoic acid], the “full-length protein production / PCL biosynthesis from precursor” value in the series with HK100 cells (listed as Lys-Nε-D-Orn) was “resulted in protein expression with PCL incorporated at the amber codon”; in the series on HK100 cells (listed as Lys-Nε-D-orn), “substantial amounts of full-length protein”. Moreover, the Bradford in the series on HK100 cells (setting [3]) stood at 1.66 mg/25 ml. Also, the “substrate for PylD” value with PylD is on record as “substrate for PylD”.

On to `CC(=O)CC(=O)NCCCC[C@H](N)C(=O)O` [TU3000-016, (S)-2-amino-6-(3-oxobutanamido)hexanoic acid hydrochloride], for which the “production of full-length hRBP4 (mutant #6) in the presence of synthetic pyrrolysine analogue” value on pylS tRNA synthetase (hydrochloride) is “measurable but much lower incorporation; also recorded: viable substrate for the pylS tRNA synthetase”. Further, in series [1], the compound stability entry is on record as “not stable”.

For `NCCC[C@@H](N)C(=O)O` [D-ornithine], the “production of full-length hRBP4 Phe122PCL protein in the presence of putative precursor” value (shortened to “production … of putative precursor”) in the series on HEK293F cells was “measurable protein band”.

On to `N[C@H](CCC(=O)O)C(=O)O` [D-glutamic acid], for which the “production … of putative precursor” value in the series with HEK293F cells is “did not result in full-length protein production above background”.

Consider `N[C@@H](CCCCNC(=O)C1CCC=N1)C(=O)O` (mixture of isomers) [PCL-A, (S)-2-amino-6-(3,4-dihydro-2H-pyrrole-2-carboxamido) hexanoic acid], for which the “incorporation into protein (full-length FAS-TE)” value in the series on HK100 cells (Escherichia coli cells with only pylS and pylT genes) is given as “incorporated with high efficiency; also recorded: incorporated into proteins”. This compound also returned a Bradford in the series with HK100 cells (purified FAS-TE from HK100 cells with pylS/pylT genes only (lanes 1-4)) of 0.539 mg/25 ml.

Consider `N=C(N)NCCC[C@@H](N)C(=O)O` [D-arginine], for which the “production … of putative precursor” value in the series on HEK293F cells is “above background protein production”.

With `O=C(O)C1CCC=N1` (racemic) [P5C, Ammonium DL-1-pyrroline-5-carboxylate], the “full-length protein production / PCL biosynthesis from precursor” value in the series with HK100 cells is “failed to produce full-length protein; also recorded: not sufficient to support PCL biosynthesis”. This compound showed a Bradford in the series on HK100 cells (setting [3]) of 0.075 mg/25 ml.

For `O=C(O)C1=NCCC1` [P2C, 3,4-dihydro-2H-pyrrole-5-carboxylate], the “full-length protein production / PCL biosynthesis from precursor” value in the series with HK100 cells was “failed to produce full-length protein; also recorded: not sufficient to support PCL biosynthesis”. The Bradford with HK100 cells (setting [3]) was 0.103 mg/25 ml.

`N[C@@H](CCCCNC(=O)OC1CCCC1)C(=O)O` [CYC, N-ε-cyclopentyloxycarbonyl-L-lysine, reference compound]: the “production of full-length hRBP4 (mutant #6) in the presence of synthetic pyrrolysine analogue” value at pylS tRNA synthetase is “protein production to a level similar to D-ornithine; also recorded: measurable protein band”.

On to `O=C(O)[C@H]1CCCN1` [D-proline], for which, in the series on HEK293F cells, the “production … of putative precursor” value is “did not result in full-length protein production above background”.

`Nc1ccc([N+](=O)[O-])cc1C(=O)c1ccccc1` [2-ANBP, 2-amino-5-nitro-benzophenone]: the solubility result in series [2] is “low solubility”.
